# pIC50: −log10 of the molar value. Read-outs that look alike come from different tables or passages of the source. Numbered stars: 1 amine (or outer) side, 2 acyl side, 3 side chain; on linkers, the order of the positions; unused ones are H or OH. Bridge positions count the residues as written; N and C are the ends. Square brackets hold non-standard residues; d marks the D form. Peptide text beside a SMILES is read from it. mXylylene = c1cc(C[*:1])cc(C[*:2])c1; Phg = N[C@H](C(=O)O)c1ccccc1; Tle = CC(C)(C)[C@H](N)C(=O)O; NMeS = CN[C@@H](CO)C(=O)O; Nva = CCC[C@H](N)C(=O)O
# What was measured:
# Assay type in all cases: biochemical
# Factor XIIa = target: T1, Factor XIIa (Homo sapiens, UniProt P00748); assay: Inhibitor specificity IC50 assay, Factor XIIa (Boc-Gln-Gly-Arg-AMC); details: substrate Boc-Gln-Gly-Arg-AMC
# T1 construct: Factor XIIa (Enzyme Research Laboratories, South Bend, Ind.); purchased Enzyme Research Laboratories
# T1 sequence (P00748 373-615 limits assumed): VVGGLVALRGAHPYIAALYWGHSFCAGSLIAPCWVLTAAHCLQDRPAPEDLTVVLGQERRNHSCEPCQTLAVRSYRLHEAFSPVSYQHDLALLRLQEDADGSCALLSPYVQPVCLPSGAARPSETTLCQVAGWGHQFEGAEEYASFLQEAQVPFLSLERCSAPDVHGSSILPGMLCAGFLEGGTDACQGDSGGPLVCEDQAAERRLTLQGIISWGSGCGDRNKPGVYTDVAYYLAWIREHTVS
# Description: (§1) Activated human plasma kallikrein (Enzyme Research Laboratories, HPKa 1303) was reacted with H-Pro-Phe-Arg-7-amido-4-methylcoumarin (H-Pro-Pre-Arg-AMC) (a fluorogenic substrate for plasma as well as pancreatic and urinary kallikreins; Bachem I-1295) and candidate inhibitory peptides to determine the IC50 of the inhibitor.
# (§2) Ten 8-fold serial dilutions of peptides (10 mM DMSO stocks) were performed in DMSO and then added to TCNB (50 mM Tris-HCl pH 7.2, 150 mM NaCl, 10 mM CaCl2, 0.05% Brij-35) and sonicated. 50 μL of the peptide dilutions were added to microtitre plates (96 well, black non-binding surface, Corning, 3650) and incubated for 5 minutes at room temperature with 4 nM activated human kallikrein (final concentration after addition of fluorogenic substrate: 1 nM). The samples were then incubated for 1 hour at room temperature with 2 mM H-Pro-Phe-Arg-AMC (final concentration 500 μM). Relative Fluorescence Units (RFU) were measured at excitation/emission 360 nm/460 nm by a SpectraMax M3.
# (§3) To determine the specificity of peptide inhibitors, an IC50 assay, as described in Example 4, was performed on a variety of serine proteases related to human plasma kallikrein. The enzymes tested include mouse plasma kallikrein (R&D Systems, Minneapolis, Minn.), and the human enzymes Factor VIIa (Enzyme Research Laboratories, South Bend, Ind.), Factor Xa (Enzyme Research Laboratories, South Bend, Ind.), Factor XIa (Enzyme Research Laboratories, South Bend, Ind.), Factor XIIa (Enzyme Research Laboratories, South Bend, Ind.), tissue kallikrein KLK13 (R&D Systems, Minneapolis, Minn.), thrombin (Enzyme Research Laboratories, South Bend, Ind.) and plasmin (Enzyme Research Laboratories, South Bend, Ind.).
# (§4) Each enzyme was tested with the following specific fluorgenic substrates (available from Bachem; Torrance, Calif.): mouse plasma kallikrein (Pro-Phe-Arg-AMC), Factor VIIa (Boc-Val-Pro-Arg-AMC), Factor Xa (Boc-Gln-Gly-Arg-AMC), Factor XIa (Boc-Gln-Gly-Arg-AMC), Factor XIIa (Boc-Gln-Gly-Arg-AMC), KLK13 (Boc-Val-Pro-Arg-AMC), thrombin (Boc-Val-Pro-Arg-AMC) and plasmin (Boc-Val-Leu-Lys-AMC). Peptide inhibitors R2006, R2010, R2012, R2019, R2023, R2030, R2036, R2041, R2047, R2104 and R2051 were assayed.
# plasmin = target: T2, plasmin (Homo sapiens, UniProt P00747); assay: Inhibitor specificity IC50 assay, plasmin (Boc-Val-Leu-Lys-AMC); details: substrate Boc-Val-Leu-Lys-AMC
# T2 construct: plasmin (Enzyme Research Laboratories, South Bend, Ind.); purchased Enzyme Research Laboratories
# Description: as §1, §2, §3, §4
# Factor VIIa = target: T3, Factor VIIa (Homo sapiens, UniProt P08709); assay: Inhibitor specificity IC50 assay, Factor VIIa (Boc-Val-Pro-Arg-AMC); details: substrate Boc-Val-Pro-Arg-AMC
# T3 construct: Factor VIIa (Enzyme Research Laboratories, South Bend, Ind.); purchased Enzyme Research Laboratories
# T3 sequence (P08709 61-212 limits assumed): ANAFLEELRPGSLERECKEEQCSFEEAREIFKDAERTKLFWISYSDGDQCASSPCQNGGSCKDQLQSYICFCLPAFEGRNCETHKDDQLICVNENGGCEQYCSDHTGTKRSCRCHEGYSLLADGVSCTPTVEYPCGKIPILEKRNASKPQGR
# T3 sequence (P08709 213-466 limits assumed): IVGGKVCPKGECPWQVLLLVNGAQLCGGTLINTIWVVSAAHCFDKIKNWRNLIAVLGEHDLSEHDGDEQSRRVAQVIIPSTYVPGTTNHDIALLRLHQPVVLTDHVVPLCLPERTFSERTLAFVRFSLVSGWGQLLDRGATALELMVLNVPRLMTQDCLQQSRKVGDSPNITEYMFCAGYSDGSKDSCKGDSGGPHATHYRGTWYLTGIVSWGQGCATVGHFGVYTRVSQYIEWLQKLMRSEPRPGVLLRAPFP
# Description: as §2, §3, §4
# tissue kallikrein KLK13 = target: T4, tissue kallikrein KLK13 (Homo sapiens, UniProt Q9UKR3); assay: Inhibitor specificity IC50 assay, KLK13 (Boc-Val-Pro-Arg-AMC); details: substrate Boc-Val-Pro-Arg-AMC
# T4 construct: purchased R&D Systems
# T4 sequence (Q9UKR3 17-277): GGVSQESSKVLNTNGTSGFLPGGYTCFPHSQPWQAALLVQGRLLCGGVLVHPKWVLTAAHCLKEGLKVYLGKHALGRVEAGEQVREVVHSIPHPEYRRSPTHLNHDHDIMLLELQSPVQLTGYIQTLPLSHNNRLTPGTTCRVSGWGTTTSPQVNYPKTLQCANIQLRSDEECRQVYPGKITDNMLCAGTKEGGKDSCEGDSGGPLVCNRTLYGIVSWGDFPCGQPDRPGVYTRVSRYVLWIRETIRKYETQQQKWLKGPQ
# Description: as §1, §2, §3, §4
# human plasma kallikrein = target: T5, human plasma kallikrein (Homo sapiens, UniProt P03952); assay: Enzyme inhibition assay (fluorogenic substrate H-Pro-Phe-Arg-AMC)
# T5 construct: purchased Enzyme Research Laboratories HPKa 1303
# Procedure, shortened: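 Activated enzyme (1 nM final) was preincubated 5 min at room temperature with peptides in 10-point 8-fold dilutions. The buffer was 50 mM Tris-HCl pH 7.2, 150 mM NaCl, 10 mM CaCl2, 0.05% Brij-35. After 1 h at room temperature with 500 μM substrate (final), fluorescence was read at 360/460 nm to derive IC50.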
# thrombin = target: T6, thrombin (Homo sapiens, UniProt P00734); assay: Inhibitor specificity IC50 assay, thrombin (Boc-Val-Pro-Arg-AMC); details: substrate Boc-Val-Pro-Arg-AMC
# T6 construct: thrombin (Enzyme Research Laboratories, South Bend, Ind.); purchased Enzyme Research Laboratories
# Description: as §1, §2, §3, §4
# Factor Xa = target: T7, Factor Xa (Homo sapiens, UniProt P00742); assay: Inhibitor specificity IC50 assay, Factor Xa (Boc-Gln-Gly-Arg-AMC); details: substrate Boc-Gln-Gly-Arg-AMC
# T7 construct: Factor Xa (Enzyme Research Laboratories, South Bend, Ind.); purchased Enzyme Research Laboratories
# Description: as §1, §2, §3, §4
# Factor XIa = target: T8, Factor XIa (Homo sapiens, UniProt P03951); assay: Inhibitor specificity IC50 assay, Factor XIa (Boc-Gln-Gly-Arg-AMC); details: substrate Boc-Gln-Gly-Arg-AMC
# T8 construct: Factor XIa (Enzyme Research Laboratories, South Bend, Ind.); purchased Enzyme Research Laboratories
# Description: as §1, §2, §3, §4
# [1] = Kallikrein inhibitory activity, 1 nM activated human kallikrein, 500 μM H-Pro-Phe-Arg-AMC, 1 hour room temperature, read-out: Avg. IC50
# T7 sequence (P00742 41-179 limits assumed): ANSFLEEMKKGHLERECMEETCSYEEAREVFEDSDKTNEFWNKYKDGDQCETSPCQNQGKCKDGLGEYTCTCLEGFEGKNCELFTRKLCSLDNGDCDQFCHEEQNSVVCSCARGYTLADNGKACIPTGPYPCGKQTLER
# T7 sequence (P00742 235-488 limits assumed): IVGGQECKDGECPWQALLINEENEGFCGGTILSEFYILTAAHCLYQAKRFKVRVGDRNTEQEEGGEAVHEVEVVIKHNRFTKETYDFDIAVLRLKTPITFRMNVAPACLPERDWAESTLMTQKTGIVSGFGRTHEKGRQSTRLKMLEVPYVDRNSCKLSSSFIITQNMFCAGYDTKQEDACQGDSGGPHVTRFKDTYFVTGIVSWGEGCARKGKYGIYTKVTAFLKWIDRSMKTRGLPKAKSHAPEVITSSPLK
# T8 sequence (P03951 19-387 limits assumed): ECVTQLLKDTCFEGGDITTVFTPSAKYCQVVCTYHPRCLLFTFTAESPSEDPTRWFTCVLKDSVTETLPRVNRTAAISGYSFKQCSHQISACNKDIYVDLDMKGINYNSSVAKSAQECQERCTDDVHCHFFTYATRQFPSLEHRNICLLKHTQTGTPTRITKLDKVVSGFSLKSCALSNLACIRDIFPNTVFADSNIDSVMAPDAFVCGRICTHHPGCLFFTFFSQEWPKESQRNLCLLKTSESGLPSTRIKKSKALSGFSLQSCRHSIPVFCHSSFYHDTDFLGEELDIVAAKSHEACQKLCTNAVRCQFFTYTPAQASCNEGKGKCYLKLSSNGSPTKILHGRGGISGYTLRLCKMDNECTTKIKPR
# T8 sequence (P03951 388-625 limits assumed): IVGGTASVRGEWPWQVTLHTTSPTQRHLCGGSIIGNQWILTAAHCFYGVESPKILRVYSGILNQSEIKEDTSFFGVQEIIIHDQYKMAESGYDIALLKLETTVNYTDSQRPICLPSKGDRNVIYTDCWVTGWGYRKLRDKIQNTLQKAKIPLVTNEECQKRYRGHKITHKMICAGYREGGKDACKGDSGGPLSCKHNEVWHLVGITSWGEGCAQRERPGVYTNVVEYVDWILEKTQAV
# T5 sequence (P03952 20-390 limits assumed): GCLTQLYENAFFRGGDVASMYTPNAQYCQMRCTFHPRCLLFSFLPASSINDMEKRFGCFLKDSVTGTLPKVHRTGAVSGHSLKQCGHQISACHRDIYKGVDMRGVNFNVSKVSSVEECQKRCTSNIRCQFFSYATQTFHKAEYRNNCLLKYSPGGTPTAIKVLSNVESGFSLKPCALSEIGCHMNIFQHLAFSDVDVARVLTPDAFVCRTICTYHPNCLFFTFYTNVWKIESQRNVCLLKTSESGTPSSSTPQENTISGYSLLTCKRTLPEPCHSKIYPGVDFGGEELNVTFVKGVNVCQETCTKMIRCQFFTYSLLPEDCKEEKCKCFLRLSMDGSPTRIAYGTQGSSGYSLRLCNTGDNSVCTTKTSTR
# T5 sequence (P03952 391-638 limits assumed): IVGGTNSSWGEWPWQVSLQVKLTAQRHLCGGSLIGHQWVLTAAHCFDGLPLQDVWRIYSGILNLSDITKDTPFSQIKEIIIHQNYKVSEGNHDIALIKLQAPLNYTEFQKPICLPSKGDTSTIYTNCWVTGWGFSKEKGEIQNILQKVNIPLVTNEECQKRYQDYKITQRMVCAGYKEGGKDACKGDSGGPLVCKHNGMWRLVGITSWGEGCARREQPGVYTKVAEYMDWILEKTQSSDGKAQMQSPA
# T2 sequence (P00747 97-580 limits assumed): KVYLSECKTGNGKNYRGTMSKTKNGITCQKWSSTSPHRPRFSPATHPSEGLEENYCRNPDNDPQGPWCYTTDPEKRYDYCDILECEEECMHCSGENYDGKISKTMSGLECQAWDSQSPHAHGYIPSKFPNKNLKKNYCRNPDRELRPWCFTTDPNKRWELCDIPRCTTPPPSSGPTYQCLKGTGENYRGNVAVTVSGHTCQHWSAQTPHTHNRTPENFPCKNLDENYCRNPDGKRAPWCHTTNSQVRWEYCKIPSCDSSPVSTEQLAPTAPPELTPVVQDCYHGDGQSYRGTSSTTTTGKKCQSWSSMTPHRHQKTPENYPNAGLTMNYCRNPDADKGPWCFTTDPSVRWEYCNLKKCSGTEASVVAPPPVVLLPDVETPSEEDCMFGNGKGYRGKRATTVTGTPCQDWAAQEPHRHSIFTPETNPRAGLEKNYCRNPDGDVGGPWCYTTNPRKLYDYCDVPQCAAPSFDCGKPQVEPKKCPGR
# T2 sequence (P00747 581-810 limits assumed): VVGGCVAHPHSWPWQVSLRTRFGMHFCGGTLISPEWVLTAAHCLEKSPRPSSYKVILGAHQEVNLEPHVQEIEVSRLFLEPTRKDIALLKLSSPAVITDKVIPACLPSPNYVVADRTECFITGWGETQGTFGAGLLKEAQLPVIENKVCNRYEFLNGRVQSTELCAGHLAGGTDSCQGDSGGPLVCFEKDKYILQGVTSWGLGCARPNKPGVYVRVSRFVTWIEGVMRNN
Compound,pIC50 (Factor XIIa),pIC50 (plasmin),pIC50 (Factor VIIa),pIC50 (tissue kallikrein KLK13),"pIC50 (human plasma kallikrein; Inhibitor specificity table, read-out: Human Kallikrein IC50)",pIC50 (thrombin),pIC50 (Factor Xa),pIC50 (Factor XIa),pIC50 (human plasma kallikrein; [1])
"CC[C@H](C)[C@@H]1NC(=O)[C@H](CO)NC(=O)[C@H](CCC(=O)O)NC(=O)[C@@H](NC(=O)[C@@H](N)CCSC)CSCc2cccc(c2)CSC[C@@H](C(=O)N[C@@H](CCCNC(=N)N)C(=O)N[C@H](C(N)=O)C(C)C)NC1=O [Compound R2006, [mXylyl(2,6)]MCESICRV-NH2] (H-MCESICRV-NH2; linker 2-6 via mXylylene)",< 4.00,< 4.00,< 4.00,< 4.00,7.60,< 4.00,< 5.15,< 4.94,–
"CC[C@H](C)[C@@H]1NC(=O)[C@H](CO)NC(=O)[C@H](CCC(=O)O)NC(=O)[C@@H](NC(=O)[C@@H](N)CCSC)CSCc2cccc(c2)CSC[C@@H](C(=O)N[C@@H](CCCNC(=N)N)C(=O)N[C@H](C(N)=O)C(C)(C)C)NC1=O [Compound R2010, [mXylyl(2,6)]MCESICR-Tbg-NH2] (H-MCESICR[Tle]-NH2; linker 2-6 via mXylylene; N-terminus assumed)",< 4.00,< 4.00,< 4.00,< 4.00,–,< 4.00,< 4.00,< 4.82,8.00
"CSCC[C@H](N)C(=O)N[C@H]1CSCc2cccc(c2)CSC[C@@H](C(=O)N[C@@H](CCCNC(=N)N)C(=O)N[C@H](C(N)=O)C(C)C)NC(=O)[C@H](c2ccccc2)NC(=O)[C@H](CO)NC(=O)[C@H](CCC(=O)O)NC1=O [Compound R2012, [mXylyl(2,6)]MCES-Phg-CRV-NH2] (H-MCES[Phg]CRV-NH2; linker 2-6 via mXylylene; N-terminus assumed)",–,–,–,< 4.00,–,–,–,< 5.08,8.08
"CC[C@H](C)[C@@H]1NC(=O)[C@H](CO)N(C)C(=O)[C@H](CCC(=O)O)NC(=O)[C@@H](NC(=O)[C@@H](N)CCSC)CSCc2cccc(c2)CSC[C@@H](C(=O)N[C@@H](CCCNC(=N)N)C(=O)N[C@H](C(N)=O)C(C)C)NC1=O [Compound R2019, [mXylyl(2,6)]MCE-nMeS-ICRV-NH2] (H-MCE[NMeS]ICRV-NH2; linker 2-6 via mXylylene; N-terminus assumed)",< 4.90,< 4.68,< 4.00,< 4.79,–,< 4.00,< 5.00,< 5.04,7.28
"CC[C@H](C)[C@@H]1NC(=O)[C@H](CO)NC(=O)[C@H](CCC(=O)O)NC(=O)[C@@H](NC(C)=O)CSCc2cccc(c2)CSC[C@@H](C(=O)N[C@@H](CCCNC(=N)N)C(=O)N[C@H](C(N)=O)C(C)C)NC1=O [Compound R2023, [mXylyl(1,5)]Ac-CESICRV-NH2] (Ac-CESICRV-NH2; linker 1-5 via mXylylene)",< 4.00,< 4.00,< 4.00,< 4.00,–,< 4.00,< 5.15,< 4.92,7.72
"CCC[C@H](N)C(=O)N[C@H]1CSCc2cccc(c2)CSC[C@@H](C(=O)N[C@@H](CCCNC(=N)N)C(=O)N[C@H](C(N)=O)C(C)(C)C)NC(=O)[C@H](c2ccccc2)NC(=O)[C@@H]2CCCN2C(=O)[C@H](CCC(=O)O)NC1=O [Compound R2030, [mXylyl(2,6)]Nvl-CEP-Phg-CR-Tbg-NH2] (H-[Nva]CEP[Phg]CR[Tle]-NH2; linker 2-6 via mXylylene)",< 4.00,< 4.00,< 4.00,< 4.00,–,< 4.00,< 4.00,< 4.98,7.60
"CC[C@H](C)[C@@H]1NC(=O)[C@H](CO)NC(=O)[C@@H](C)NC(=O)[C@@H](NC(C)=O)CSCc2cccc(c2)CSC[C@@H](C(=O)N[C@@H](CCCNC(=N)N)C(=O)N[C@H](C(N)=O)C(C)C)NC1=O [Compound R2047, [mXylyl(1,5)]Ac-C-a-SICRV-NH2] (Ac-C[dA]SICRV-NH2; linker 1-5 via mXylylene)",< 4.00,< 4.00,< 4.00,< 4.00,–,< 4.00,< 4.00,< 4.86,–
"CSCC[C@H](N)C(=O)N[C@@H](CS)C(=O)N[C@@H](CC(N)=O)C(=O)N[C@@H](Cc1ccc(O)cc1)C(=O)N[C@@H](Cc1c[nH]c2ccccc12)C(=O)N[C@@H](CO)C(=O)N1CCC[C@H]1C(=O)N[C@@H](Cc1c[nH]c2ccccc12)C(=O)N[C@H](C(=O)N[C@@H](CCC(=O)O)C(=O)N[C@@H](CS)C(=O)N[C@@H](CO)C(=O)N[C@@H](C)C(N)=O)[C@@H](C)O [Compound R2104, MCNYWSPWTECSA-NH2] (H-MCNYWSPWTECSA-NH2)",< 4.00,–,< 4.00,< 4.00,–,< 4.00,< 4.00,< 5.30,8.47

# — patent publication US9999650B2, “Peptide and peptidomimetic inhibitors” (Ra Pharmaceuticals, Inc., priority 2012, dated 2018)
